Laboratory results from PubChem BioAssay (NCI).
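Growth conditions: 96-well plates. Treatment: test compound, 48 hours, 5 concentrations. Analysis: linear interpolation between bracketing concentrations; unreached endpoints set to highest concentration. Definition used: TGI = concentration required for complete inhibition of growth.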

Columns and labels:
Experiment in all cases: growth of human tumour cells (NCI), 48 h
LXFL 529 NSCLC = test system: LXFL 529 NSCLC
COLO 205 colon = test system: COLO 205 colon
HCT-15 colon = test system: HCT-15 colon
NCI-H522 lung = test system: NCI-H522 lung
HCC-2998 colon = test system: HCC-2998 colon
ACHN renal = test system: ACHN renal
HT29 colon = test system: HT29 colon
NCI-H23 lung = test system: NCI-H23 lung
HL-60(TB) leukemia = test system: HL-60(TB) leukemia
KM20L2 colon = test system: KM20L2 colon
786-0 renal = test system: 786-0 renal
OVCAR-3 ovarian = test system: OVCAR-3 ovarian
SK-MEL-5 melanoma = test system: SK-MEL-5 melanoma
SNB-75 CNS = test system: SNB-75 CNS
TK-10 renal = test system: TK-10 renal
SNB-19 CNS = test system: SNB-19 CNS
U251 CNS = test system: U251 CNS
A498 renal = test system: A498 renal
SF-268 CNS = test system: SF-268 CNS
NCI-H460 lung = test system: NCI-H460 lung
LOX IMVI melanoma = test system: LOX IMVI melanoma
NCI-H226 lung = test system: NCI-H226 lung
DMS 114 small cell lung = test system: DMS 114 small cell lung
OVCAR-8 ovarian = test system: OVCAR-8 ovarian
SK-MEL-28 melanoma = test system: SK-MEL-28 melanoma
HCT-116 colon = test system: HCT-116 colon
HOP-92 NSCLC = test system: HOP-92 NSCLC
A549 NSCLC = test system: A549 NSCLC
MOLT-4 leukemia = test system: MOLT-4 leukemia
HOP-62 NSCLC = test system: HOP-62 NSCLC
SF-539 CNS = test system: SF-539 CNS
DMS 273 small cell lung = test system: DMS 273 small cell lung
EKVX NSCLC = test system: EKVX NSCLC
RXF 393 renal = test system: RXF 393 renal
UO-31 renal = test system: UO-31 renal
IGROV1 ovarian = test system: IGROV1 ovarian
RPMI-8226 leukemia = test system: RPMI-8226 leukemia
SK-OV-3 ovarian = test system: SK-OV-3 ovarian
CCRF-CEM leukemia = test system: CCRF-CEM leukemia
SNB-78 CNS = test system: SNB-78 CNS
SW-620 colon = test system: SW-620 colon
OVCAR-4 ovarian = test system: OVCAR-4 ovarian
UACC-62 melanoma = test system: UACC-62 melanoma
M19-MEL melanoma = test system: M19-MEL melanoma
SR leukemia = test system: SR leukemia
SF-295 CNS = test system: SF-295 CNS
SK-MEL-2 melanoma = test system: SK-MEL-2 melanoma
UACC-257 melanoma = test system: UACC-257 melanoma
KM12 colon = test system: KM12 colon
SN12C renal = test system: SN12C renal
CAKI-1 renal = test system: CAKI-1 renal
K-562 leukemia = test system: K-562 leukemia
M14 melanoma = test system: M14 melanoma
MALME-3M melanoma = test system: MALME-3M melanoma

Measured: TGI

CC1(SCC(N)C(=O)O)CC(=O)NC1=O (configuration not stated)
not listed: M14 melanoma | MALME-3M melanoma
> 100 µM: all other assays above

c1ccc(C2=NOC3COc4ccccc4OCC23)cc1 (configuration not stated)
not listed: NCI-H226 lung | HOP-92 NSCLC | IGROV1 ovarian | M19-MEL melanoma
> 100 µM: all other assays above
